{
  "source": "PubChem BioAssay AID2060900",
  "about": "(Molecular Pharmacology Branch, DTP, NCI, 2025)",
  "system": "521955-158-R2-J5-PDC complex spheroids, viability",
  "experiment": "Anticancer human tumor 521955-158-R2-J5-PDC patient-derived pancreatic carcinoma cell line growth inhibition [RAS]",
  "details": "for IC50: curve of first compound; for viability, T/C: stronger effect = lower value",
  "summary_of_the_method": "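Agents were tested in combination matrices in half-log decrements from a top concentration at or near clinical Cmax (10 microM if undetermined). Targets were multi-cell spheroids of tumour lines plus HUVEC and MSC stromal cells.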",
  "data": [
    {"molecule": "O=C(c1ccc(F)c(F)c1Nc1ccc(I)cc1F)N1CC(O)([C@@H]2CCCCN2)C1", "note": "+ C=CC(=O)N1CCN(c2nc(OCC3CCCN3C)nc3c(F)c(-c4nc(N)cc(C)c4C(F)(F)F)c(Cl)cc23)C(C)C1;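 also: compound exposure lasted seven days before the viability read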;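 as to viability, T/C: spheroids also contain HUVEC endothelial cells and mesenchymal stem cells as stroma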", "values": [
      {"measurement": "IC50", "setting": "second compound 0.00316 µM", "value": 0.023, "unit": "µM"},
      {"measurement": "IC50", "setting": "second compound 0.01 µM", "value": 0.0142, "unit": "µM"},
      {"measurement": "IC50", "setting": "second compound 0.0316 µM", "value": 0.0372, "unit": "µM"},
      {"measurement": "IC50", "setting": "second compound 0.1 µM", "value": 0.0401, "unit": "µM"},
      {"measurement": "IC50", "setting": "second compound 0.316 µM", "value": 0.072, "unit": "µM"},
      {"measurement": "IC50", "setting": "second compound 1 µM", "value": 0.0269, "unit": "µM"},
      {"measurement": "viability, T/C", "setting": "second compound 0.00316 µM, first compound 0.00316 µM", "value": 93, "unit": "%"},
      {"measurement": "viability, T/C", "setting": "second compound 0.00316 µM, first compound 0.01 µM", "value": 58, "unit": "%"},
      {"measurement": "viability, T/C", "setting": "second compound 0.00316 µM, first compound 0.0316 µM", "value": 48, "unit": "%"},
      {"measurement": "viability, T/C", "setting": "second compound 0.00316 µM, first compound 0.1 µM", "value": 36.6, "unit": "%"},
      {"measurement": "viability, T/C", "setting": "second compound 0.00316 µM, first compound 0.316 µM", "value": 29.8, "unit": "%"},
      {"measurement": "viability, T/C", "setting": "second compound 0.00316 µM, first compound 1 µM", "value": 23.3, "unit": "%"},
      {"measurement": "viability, T/C", "setting": "second compound 0.01 µM, first compound 0.00316 µM", "value": 84.2, "unit": "%"},
      {"measurement": "viability, T/C", "setting": "second compound 0.01 µM, first compound 0.01 µM", "value": 45.3, "unit": "%"},
      {"measurement": "viability, T/C", "setting": "second compound 0.01 µM, first compound 0.0316 µM", "value": 45.7, "unit": "%"},
      {"measurement": "viability, T/C", "setting": "second compound 0.01 µM, first compound 0.1 µM", "value": 38.2, "unit": "%"},
      {"measurement": "viability, T/C", "setting": "second compound 0.01 µM, first compound 0.316 µM", "value": 31.4, "unit": "%"},
      {"measurement": "viability, T/C", "setting": "second compound 0.01 µM, first compound 1 µM", "value": 19.6, "unit": "%"},
      {"measurement": "viability, T/C", "setting": "second compound 0.0316 µM, first compound 0.00316 µM", "value": 65.2, "unit": "%"},
      {"measurement": "viability, T/C", "setting": "second compound 0.0316 µM, first compound 0.01 µM", "value": 62.1, "unit": "%"},
      {"measurement": "viability, T/C", "setting": "second compound 0.0316 µM, first compound 0.0316 µM", "value": 44.4, "unit": "%"},
      {"measurement": "viability, T/C", "setting": "second compound 0.0316 µM, first compound 0.1 µM", "value": 47.2, "unit": "%"},
      {"measurement": "viability, T/C", "setting": "second compound 0.0316 µM, first compound 0.316 µM", "value": 33.2, "unit": "%"},
      {"measurement": "viability, T/C", "setting": "second compound 0.0316 µM, first compound 1 µM", "value": 21.5, "unit": "%"},
      {"measurement": "viability, T/C", "setting": "second compound 0.1 µM, first compound 0.00316 µM", "value": 65, "unit": "%"},
      {"measurement": "viability, T/C", "setting": "second compound 0.1 µM, first compound 0.01 µM", "value": 61.3, "unit": "%"},
      {"measurement": "viability, T/C", "setting": "second compound 0.1 µM, first compound 0.0316 µM", "value": 44.8, "unit": "%"},
      {"measurement": "viability, T/C", "setting": "second compound 0.1 µM, first compound 0.1 µM", "value": 50.8, "unit": "%"},
      {"measurement": "viability, T/C", "setting": "second compound 0.1 µM, first compound 0.316 µM", "value": 31.2, "unit": "%"},
      {"measurement": "viability, T/C", "setting": "second compound 0.1 µM, first compound 1 µM", "value": 24.1, "unit": "%"},
      {"measurement": "viability, T/C", "setting": "second compound 0.316 µM, first compound 0.00316 µM", "value": 97, "unit": "%"},
      {"measurement": "viability, T/C", "setting": "second compound 0.316 µM, first compound 0.01 µM", "value": 66.4, "unit": "%"},
      {"measurement": "viability, T/C", "setting": "second compound 0.316 µM, first compound 0.0316 µM", "value": 62.6, "unit": "%"},
      {"measurement": "viability, T/C", "setting": "second compound 0.316 µM, first compound 0.1 µM", "value": 48.1, "unit": "%"},
      {"measurement": "viability, T/C", "setting": "second compound 0.316 µM, first compound 0.316 µM", "value": 33.8, "unit": "%"},
      {"measurement": "viability, T/C", "setting": "second compound 0.316 µM, first compound 1 µM", "value": 20.3, "unit": "%"},
      {"measurement": "viability, T/C", "setting": "second compound 1 µM, first compound 0.00316 µM", "value": 80.2, "unit": "%"},
      {"measurement": "viability, T/C", "setting": "second compound 1 µM, first compound 0.01 µM", "value": 65.4, "unit": "%"},
      {"measurement": "viability, T/C", "setting": "second compound 1 µM, first compound 0.0316 µM", "value": 42.6, "unit": "%"},
      {"measurement": "viability, T/C", "setting": "second compound 1 µM, first compound 0.1 µM", "value": 39.3, "unit": "%"},
      {"measurement": "viability, T/C", "setting": "second compound 1 µM, first compound 0.316 µM", "value": 32.5, "unit": "%"},
      {"measurement": "viability, T/C", "setting": "second compound 1 µM, first compound 1 µM", "value": 22.6, "unit": "%"}
    ]},
    {"molecule": "CC1(O)CCCC1n1c(=O)c(C(F)F)cc2cnc(NC3CCN(S(C)(=O)=O)CC3)nc21", "note": "(centres undefined) + CCn1c(-c2cccnc2C(C)OC)c2c3cc(ccc31)N1CCOC(CC(NC(=O)C(C(C)C)N(C)C(=O)C3(F)CCN(C(=O)C#CC(C)(C)N(C)C)CC3)C(=O)N3CCCC(N3)C(=O)OCC(C)(C)C2)C1", "values": [
      {"measurement": "IC50", "setting": "second compound 0.000949 µM", "value": 4.9, "unit": "µM"},
      {"measurement": "IC50", "setting": "second compound 0.003 µM", "value": 5.09, "unit": "µM"},
      {"measurement": "IC50", "setting": "second compound 0.00949 µM", "value": 4.91, "unit": "µM"},
      {"measurement": "IC50", "setting": "second compound 0.03 µM", "value": 4.99, "unit": "µM"},
      {"measurement": "IC50", "setting": "second compound 0.0949 µM", "value": 4.43, "unit": "µM"},
      {"measurement": "IC50", "setting": "second compound 0.3 µM", "value": 3.76, "unit": "µM"},
      {"measurement": "viability, T/C", "setting": "second compound 0.000949 µM, first compound 0.0316 µM", "value": 68.5, "unit": "%"},
      {"measurement": "viability, T/C", "setting": "second compound 0.000949 µM, first compound 0.1 µM", "value": 66.1, "unit": "%"},
      {"measurement": "viability, T/C", "setting": "second compound 0.000949 µM, first compound 0.316 µM", "value": 61.6, "unit": "%"},
      {"measurement": "viability, T/C", "setting": "second compound 0.000949 µM, first compound 1 µM", "value": 59.4, "unit": "%"},
      {"measurement": "viability, T/C", "setting": "second compound 0.000949 µM, first compound 3.16 µM", "value": 103, "unit": "%"},
      {"measurement": "viability, T/C", "setting": "second compound 0.000949 µM, first compound 10 µM", "value": 14.8, "unit": "%"},
      {"measurement": "viability, T/C", "setting": "second compound 0.003 µM, first compound 0.0316 µM", "value": 89.5, "unit": "%"},
      {"measurement": "viability, T/C", "setting": "second compound 0.003 µM, first compound 0.1 µM", "value": 67.8, "unit": "%"},
      {"measurement": "viability, T/C", "setting": "second compound 0.003 µM, first compound 0.316 µM", "value": 49.5, "unit": "%"},
      {"measurement": "viability, T/C", "setting": "second compound 0.003 µM, first compound 1 µM", "value": 82.7, "unit": "%"},
      {"measurement": "viability, T/C", "setting": "second compound 0.003 µM, first compound 3.16 µM", "value": 89.2, "unit": "%"},
      {"measurement": "viability, T/C", "setting": "second compound 0.003 µM, first compound 10 µM", "value": 13.5, "unit": "%"},
      {"measurement": "viability, T/C", "setting": "second compound 0.00949 µM, first compound 0.0316 µM", "value": 88.1, "unit": "%"},
      {"measurement": "viability, T/C", "setting": "second compound 0.00949 µM, first compound 0.1 µM", "value": 71.1, "unit": "%"},
      {"measurement": "viability, T/C", "setting": "second compound 0.00949 µM, first compound 0.316 µM", "value": 60.2, "unit": "%"},
      {"measurement": "viability, T/C", "setting": "second compound 0.00949 µM, first compound 1 µM", "value": 62.1, "unit": "%"},
      {"measurement": "viability, T/C", "setting": "second compound 0.00949 µM, first compound 3.16 µM", "value": 93.5, "unit": "%"},
      {"measurement": "viability, T/C", "setting": "second compound 0.00949 µM, first compound 10 µM", "value": 9.48, "unit": "%"},
      {"measurement": "viability, T/C", "setting": "second compound 0.03 µM, first compound 0.0316 µM", "value": 89.7, "unit": "%"},
      {"measurement": "viability, T/C", "setting": "second compound 0.03 µM, first compound 0.1 µM", "value": 77.1, "unit": "%"},
      {"measurement": "viability, T/C", "setting": "second compound 0.03 µM, first compound 0.316 µM", "value": 47.7, "unit": "%"},
      {"measurement": "viability, T/C", "setting": "second compound 0.03 µM, first compound 1 µM", "value": 76.1, "unit": "%"},
      {"measurement": "viability, T/C", "setting": "second compound 0.03 µM, first compound 3.16 µM", "value": 78.9, "unit": "%"},
      {"measurement": "viability, T/C", "setting": "second compound 0.03 µM, first compound 10 µM", "value": 13.6, "unit": "%"},
      {"measurement": "viability, T/C", "setting": "second compound 0.0949 µM, first compound 0.0316 µM", "value": 67.6, "unit": "%"},
      {"measurement": "viability, T/C", "setting": "second compound 0.0949 µM, first compound 0.1 µM", "value": 61.1, "unit": "%"},
      {"measurement": "viability, T/C", "setting": "second compound 0.0949 µM, first compound 0.316 µM", "value": 47.3, "unit": "%"},
      {"measurement": "viability, T/C", "setting": "second compound 0.0949 µM, first compound 1 µM", "value": 63.1, "unit": "%"},
      {"measurement": "viability, T/C", "setting": "second compound 0.0949 µM, first compound 3.16 µM", "value": 90.5, "unit": "%"},
      {"measurement": "viability, T/C", "setting": "second compound 0.0949 µM, first compound 10 µM", "value": 11.6, "unit": "%"},
      {"measurement": "viability, T/C", "setting": "second compound 0.3 µM, first compound 0.0316 µM", "value": 60.8, "unit": "%"},
      {"measurement": "viability, T/C", "setting": "second compound 0.3 µM, first compound 0.1 µM", "value": 37.9, "unit": "%"},
      {"measurement": "viability, T/C", "setting": "second compound 0.3 µM, first compound 0.316 µM", "value": 45.5, "unit": "%"},
      {"measurement": "viability, T/C", "setting": "second compound 0.3 µM, first compound 1 µM", "value": 58, "unit": "%"},
      {"measurement": "viability, T/C", "setting": "second compound 0.3 µM, first compound 3.16 µM", "value": 88.2, "unit": "%"},
      {"measurement": "viability, T/C", "setting": "second compound 0.3 µM, first compound 10 µM", "value": 9.67, "unit": "%"}
    ]}
  ]
}
